In patent publication US20220257552A1, “METHODS OF PRESCREENING AND TREATING BREAST CANCERS WITH SELECTIVE ANDROGEN RECEPTOR MODULATORS” (priority 2021, published 2022):
Several values for one entry are separate records, joined by “and”; a condition that tells them apart may be missing. Equal entries are not always repeated.

What was measured:
HCI-13 tumors = assay: Affymetrix microarray of HCI-13 PDX tumors; set-up: species or system mice; details: mouse, in vivo
Protocol: RNA from tumors was extracted and verified qualitatively and quantitatively. Total RNA (200 ng/sample; n=4/group) from each sample was amplified and labeled using the WT Plus Kit from Affymetrix and processed according to Affymetrix protocol. The arrays (Human ST2.0, Affymetrix, Santa Clara, Calif.) were washed and stained on Affymetrix Fluidics station 450 and scanned on an Affymetrix GCS 3000 scanner.
Data from microarrays were normalized using Affymetrix Expression Console. Mean, Standard Deviation, and Variance were calculated across the groups. Fold Change from vehicle-treated samples was calculated, and a fold change of 1.5 was used as cutoff Student's t-test was used to determine the significance and a cutoff of p value<0.05 was used for significance discovery. False discovery rate was calculated using Benjamini & Hochberg method, and a cutoff for FDR<0.05 was used to create a significant differential expression list. The gene candidate list was loaded to Ingenuity Pathway Analysis and gene set enrichment analysis (GSEA) performed for further discovery. Microarray experiments were performed at the UTHSC Molecular Resources Center (MRC), and data analysis was performed by the UTHSC Molecular Bioinformatics (mBio) core facility.

MCF7 palboR cells = assay: Proliferation of palbociclib resistant MCF-7 cells; type: cell-based; details: Formula IX 100 nM, Palb 125 nM
Text: Data were presented as mean values±s.e.m. […] Data represented the mean±s.e.m. of four replicate cell culture wells per condition. […] P values are indicated by gray asterisks, where ****P<0.0001 for all highlighted comparisons.
Tissue samples from an ER-positive, PR-negative, and HER2-negative (ER^+, PR^−, HER2^−) patient that progressed on (i.e., was resistant to) palbociclib were implanted into animal (NSG mice) models and grown as a patient-derived xenograft (PDX). […] This human tumor model also had amplification of the cyclin D1 (CCND1^Amp) gene which has been implicated as a driver of therapeutic resistance to CDKi. […] This is also observed in other models tested in vitro including a palbociclib resistant MCF-7 (MCF7 palbo^R) line (FIG. 44B).

[1] = system: ER-positive metastatic breast cancer; assay: Phase 2 trial G200801, 9 mg daily, ER-positive metastatic breast cancer; type: in vivo, human
Text: The goal of this study was to determine the importance of the AR status as a therapeutic target in women with ER-positive metastatic breast cancer (MBC) that had previously responded to hormone therapy. The treatment was continued until disease progression (PD).
CBR will be correlated with AR status of metastatic tumor biopsy.
Female subjects with ER-positive metastatic breast cancer who have previously been treated with up to 3 prior hormonal therapies for the treatment of breast cancer. Subjects must have been treated with and responded to previous adjuvant therapy for ≥3 years or hormonal therapy for metastatic disease for ≥6 months prior to progression. Details of subject selection criteria are presented below:
The primary efficacy analysis was the clinical benefit in subjects with AR-positive breast cancer at 6 months as measured by a modified Response Evaluation Criteria in Solid Tumors (RECIST 1.1) classification. Key secondary endpoints of clinical benefit in all subjects and AR-negative subjects, as well as objective response rate, progression free survival, time to progression, duration of response, incidence of SREs, and time to first SRE in subsets based on AR status (i.e., all subjects, AR-positive subjects, and AR-negative subjects) was also assessed. Effects on CA 27-29, PSA, bone turnover markers, QOL, and libido were assessed as tertiary endpoints.
Clinical benefit in a subject is defined as a complete response [CR], a partial response [PR] or stable disease [SD] as measured by modified RECIST 1.1, which is described in detail below. (Eisenhauer E A et al. New response evaluation criteria in solid tumors: revised RECIST guideline (version 1.1). European Journal of Cancer 45:228-247, 2009).
For subjects with non-measurable (non-target) disease only at baseline, SD was defined as those with non-CR/non-PD combined response. The primary endpoint of the study was to assess the proportion of subjects with clinical benefit (PCB) at 6 months (CR+PR+SD) in subjects with AR-positive breast cancer.

C[C@](O)(COc1ccc(C#N)cc1)C(=O)Nc1ccc(C#N)c(C(F)(F)F)c1 [Formula IX, (S)—N-(4-Cyano-3-(trifluoromethyl)phenyl)-3-(4-cyanophenoxy)-2-hydroxy-2-methylpropanamide]
members of histone group inhibited (HCI-13 tumors): About 17
anti-proliferative activity (MCF7 palboR cells): modest activity
AR-positive patients with clinical benefit at 6 months (primary endpoint) ([1]; 9 mg daily): 6/17
CR or PR ([1]; 9 mg daily): no CR or PR has been observed
median duration of SD as best response ([1]; 9 mg daily): 212 days
patients with PSA increase ([1]; 9 mg daily): 20 of the 22
tolerability ([1]; 9 mg daily): well-tolerated
subjects with clinical benefit (SD) at 6 months ([1]; 9 mg once daily, all subjects): Seven out of twenty-two
tolerability ([1]; 9 mg, no virilization, hematocrit increase or liver toxicity): well tolerated
A-fib ([1]; AE count, 9 mg daily): 1
anxiety/emotional changes ([1]; AE count, 9 mg daily): 5
arthralgia ([1]; AE count, 9 mg daily): 6
bloating ([1]; AE count, 9 mg daily): 2
bruising ([1]; AE count, 9 mg daily): 1
cellulitis ([1]; AE count, 9 mg daily): 1
chills ([1]; AE count, 9 mg daily): 1
constipation ([1]; AE count, 9 mg daily): 2
cough ([1]; AE count, 9 mg daily): 1
dehydration ([1]; AE count, 9 mg daily): 1
diarrhea ([1]; AE count, 9 mg daily): 3
dizziness ([1]; AE count, 9 mg daily): 2
dysgeusia ([1]; AE count, 9 mg daily): 1
dyspepsia ([1]; AE count, 9 mg daily): 1
dyspnea ([1]; AE count, 9 mg daily): 3
edema ([1]; AE count, 9 mg daily): 2
fatigue ([1]; AE count, 9 mg daily): 14
fever ([1]; AE count, 9 mg daily): 1
flatulence ([1]; AE count, 9 mg daily): 1
glaucoma ([1]; AE count, 9 mg daily): 1
headache ([1]; AE count, 9 mg daily): 4
hot flash night sweats ([1]; AE count, 9 mg daily): 7
hypertension ([1]; AE count, 9 mg daily): 2
infection ([1]; AE count, 9 mg daily): 1
insomnia ([1]; AE count, 9 mg daily): 2
myalgia ([1]; AE count, 9 mg daily): 5
nail discoloration ([1]; AE count, 9 mg daily): 1
nausea ([1]; AE count, 9 mg daily): 11
pain ([1]; AE count, 9 mg daily): 22
paresthesia ([1]; AE count, 9 mg daily): 1
pleural effusion ([1]; AE count, 9 mg daily): 1
polyuria ([1]; AE count, 9 mg daily): 1
post menopausal bleeding ([1]; AE count, 9 mg daily): 3
stiffness ([1]; AE count, 9 mg daily): 1
tendonitis ([1]; AE count, 9 mg daily): 1
vision changes ([1]; AE count, 9 mg daily): 3
vomiting ([1]; AE count, 9 mg daily): 2
weight gain ([1]; AE count, 9 mg daily): 2
weight loss ([1]; AE count, 9 mg daily): 2
subjects with CB as best response ([1]; all subjects (9/22)): 41%
Current Disposition ([1]; individual patients): D/C (2×) and Deceased (4×)
Days on Study ([1]; individual patients): 255 Days and 105 Days and 7 Days and 18 Days and 158 Days and 308 Days and 52 Days and 63 Days and 230 Days and 84 Days (3×) and 252 Days and 28 Days and 239 Days and 86 Days and 202 Days and 190 Days and 99 Days and 137 Days and 100 Days and 91 Days
Day 84 RECIST ([1]; individual patients, 9 mg daily): D/C SAE and PD SAE and D/C
tumor regression ([1]; one subject with SD): 27%
